Laboratory results taken from ChEMBL document CHEMBL1201862, “PubChem BioAssay data set” (2004).
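Interpolation was linear, between the two tested concentrations surrounding the appropriate level; five concentrations were tested over 48 hours in 96-well plates. At the GI50, growth is halved.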 Activity calls are given as the source filed them. Cut-off read from the data, not from the text of the source: active = GI50 up to about 1.1 µM and inactive = higher.

How the values were obtained:
Assay in all cases: NCI-60 cell line screen, 48 h
RXF 631 = test system: RXF 631
MDA-MB-231 = test system: MDA-MB-231
DU-145 = test system: DU-145
Hs-578T = test system: Hs-578T
MDA-N = test system: MDA-N
PC-3 = test system: PC-3
MDA-MB-435 = test system: MDA-MB-435
BT-549 = test system: BT-549

Measured: GI50

COc1cccc(NC(=O)CC(=O)NNCC(=O)Nc2nnc(-c3ccc(N(CCC#N)S(=O)(=O)c4ccccc4)cc3)s2)c1
inactive: RXF 631 > 100 µM

COc1ccc(/C(Cl)=C(\C=O)c2ccc(Cl)c(Cl)c2)cc1OC
inactive: RXF 631 4.57 µM

C1CCC(OC2CSC2)OC1 (stereo not given)
inactive: MDA-MB-231 > 100 µM | DU-145 > 100 µM | Hs-578T > 100 µM | MDA-N > 100 µM | PC-3 > 100 µM | MDA-MB-435 > 100 µM

COc1cc2c3cc1Oc1c(OC)c(OC)cc4c1C(Cc1ccc(cc1)Oc1cc(ccc1O)CC3N(C)CC2)N(C)CC4 (stereo not given)
inactive: MDA-MB-231 10.1 µM | DU-145 10.6 µM | Hs-578T 10.8 µM | BT-549 10.1 µM | MDA-N 4.73 µM | PC-3 10.4 µM | MDA-MB-435 8.09 µM
